Laboratory results published in patent US4335250A, “Compound with immunopotentiating activity and production and uses thereof” (Banyu Pharmaceutical Co., Ltd., priority 1978, dated 1982).

How the values were obtained:
[1] = tested on: cellular immunity (cell-mediated immunity), DTH response to sheep red blood cells; assay: Delayed-type hypersensitivity (footpad swelling), CDF1 mice; type: in vivo, CDF1 mouse (male, 9 weeks); details: other strains of mice of different ages
[2] = tested on: cellular immunity (cell-mediated immunity), DTH response to sheep red blood cells; assay: Delayed-Type Hypersensitivity (D.T.H.) technique, ICR mice immunized with sheep red blood cells (footpad swelling); type: in vivo, ICR mouse (female, 6 weeks); details: for Increase in thickness of footpad: 24 h after eliciting injection, control 8.3 ± 1.0; for Swelling degree: ICR mice, vs control
Protocol: In this Example, the effect of BF-127 substance on cellular immunity (cell-mediated immunity) was tested according to a known Delayed-Type Hypersensitivity (D.T.H.) technique (see P. H. Lagrange, G. B. Mackaness and T. E. Mille, "J. Exp. Med", 139, 1529-1539 (1974) using mice immunized with sheep red blood cells as antigen.
(§1) Thus, 10^8 sheep red blood cells (SRBC) suspended in 0.05 ml of physiological saline were subcutaneously injected at the time of immunization to the right hind footpad of each ICR mouse under test (female, 6 weeks aged) to establish delayed-type hypersensitivity. Simultaneously with the immunization, a varying dose of BF-127 substance was intraperitoneally injected into each test mouse. Four days later, 10^8 sheep red blood cells were subcutantaneously injected into the left hind footpad of each test mouse for elicitation of the D.T.H. response. 24 hours after eliciting injection, the thickness of the left hind footpad was measured with a vernier caliper to evaluate the degree of the resulting edema in the footpad. The degree of the swelling serves to estimate the cellular immunity involved. In the Table, the swelling degree is expressed in terms of the values calculated by the equation: [formula]
By way of reference, the test results conducted by the same procedure as above except that BF-127 substance was orally administered are indicated in Table 2 below.

Gardner Lymphoma = assay: Inhibitory effect on growth of transplanted Gardner Lymphoma; type: in vivo, C3H/He mouse (female, 10 weeks); details: for Average weight of tumors / Inhibition: 5 days, 30 days after transplantation; for Average weight of tumors: untreated 1310 mg; for Inhibition: tumor growth
From the text: 10^5 Gardner Lymphoma cells were transplanted subcutaneously to the inguinal of each C3H/He mouse under test (female, 10 weeks old, 5 mice per group).

IMC Carcinoma [3] = assay: Inhibitory effect on IMC Carcinoma, 1×10^6 cells inoculated; type: in vivo, CDF1 mouse (female, 14 weeks); details: for Average weight of tumors: untreated 5635 mg; for Inhibition: tumor growth
From the text: This Example illustrates the inhibitory effect of BF-127 substance on IMC Carcinoma. […] Pathological studies have shown that the above tumor is a sort of epithelial undifferentiated tumors.
5×10^6 IMC tumor cells were transplanted hypodermically to the inguinal section of each CDF1 mouse under test (female, 14 weeks old, 5 mice per group). 8 days after transplantation, a varying dose of BF-127 substance was intraperitoneally injected into each test mouse once a day for five successive days. 30 days after transplantation, the tumor formed were removed and weighed to evaluate the inhibitory effect of BF-127 substance on tumor growth in terms of average weight of the tumors formed in 5 mice.
Further tests were conducted following the procedure as above wherein 1×10^6 IMC tumor cells were inoculated and BF-127 substance was intraperitoneally injected (I.P.) or orally administered (P.O.).

IMC Carcinoma [4] = assay: Inhibitory effect on IMC Carcinoma, 5×10^6 cells transplanted; type: in vivo, CDF1 mouse (female, 14 weeks); details: 5 days, 30 days; for Average weight of tumors: untreated 12380 mg; for Inhibition: tumor growth
From the text: 5×10^6 IMC tumor cells were transplanted hypodermically to the inguinal section of each CDF1 mouse under test (female, 14 weeks old, 5 mice per group).

[5] = tested on: cellular immunity (cell-mediated immunity), DTH response to sheep red blood cells; assay: Delayed-type hypersensitivity (footpad swelling), CDF1 mice; type: in vivo, CDF1 mouse (male, 9 weeks)
Protocol: as §1
The same test procedure as described in Example 7 was repeated but using CDF1 (DBA/2xBALB/CF1) male mice (9 weeks old), in which varying doses of BF-127 substance were intraperitoneally injected or orally administered into each test mouse. The tests results are shown in Table 3 below where the swelling degree has the same significance as in Example 7.

alkaline phosphatase = details: cited from earlier work
[6] = tested on: delayed-type hypersensitivity; details: cited from earlier work
antibody-forming cells = details: cited from earlier work
immune response = details: Japanese Patent Pre-publication No. 44632/79; U.S. Pat. No. 4,238,507; cited from earlier work
[7] = 20 μg/mouse (Control) i.p. once a day
[8] = 100 μg/mouse (Control) i.p. once a day

## O=C(O)c1ccc(CO)c(O)c1 [BF-127, 3-hydroxy-4-(hydroxymethyl) benzoic acid]
[1]
  immunopotentiating effect: also observed
[2]; 0.1 μg/mouse i.p.
  Increase in thickness of footpad: 14.3 ± 1.1 × 0.1 mm
  Swelling degree: 172%
[2]; 1 μg/mouse i.p.
  Increase in thickness of footpad: 19.4 ± 1.8 × 0.1 mm
  Swelling degree: 234%
[2]; 10 μg/mouse i.p.
  Increase in thickness of footpad: 15.5 ± 1.3 × 0.1 mm
  Swelling degree: 187%
[2]; 10 μg/mouse oral
  Swelling degree: 146%
[2]; 100 μg/mouse i.p.
  Increase in thickness of footpad: 15.7 ± 0.3 × 0.1 mm
  Swelling degree: 189%
[2]; 100 μg/mouse oral
  Swelling degree: 148%
[2]; 1 mg/mouse i.p.
  Increase in thickness of footpad: 13.1 ± 0.4 × 0.1 mm
  Swelling degree: 158%
[2]; 1 mg/mouse oral
  Swelling degree: 133%
[2]; i.p., 1 mg to 0.1 μg/mouse
  potentiating effect on establishment of cellular immunity: intensive potentiating effect
[2]; intravenous injection
  potentiating effect on DTH response: potentiating effect has also been observed
[2]; oral administration
  potentiating effect on DTH response: potentiating effect has also been observed
[2]; oral, doses of 1 mg to 10 μg/mouse
  potentiation of the DTH response: 30-50%
[2]; subcutaneous injection
  potentiating effect on DTH response: potentiating effect has also been observed
Gardner Lymphoma; 0.1 μg/mouse i.p. once a day
  Average weight of tumors: 950 mg
  Inhibition: 27.5%
Gardner Lymphoma; 1 μg/mouse i.p. once a day
  Average weight of tumors: 930 mg
  Inhibition: 29.0%
Gardner Lymphoma; 10 μg/mouse i.p. once a day
  Average weight of tumors: 570 mg
  Inhibition: 56.5%
Gardner Lymphoma; BF-127 at 10 μg/mouse
  inhibition of tumor growth compared to Bleomycin: superior or comparable to Bleomycin
IMC Carcinoma [3]; 1 μg/mouse (I.P.)
  Average weight of tumors: 2206 mg
  Inhibition: 60.8%
IMC Carcinoma [3]; 1 μg/mouse (P.O.)
  Average weight of tumors: 2538 mg
  Inhibition: 55.0%
IMC Carcinoma [3]; 10 μg/mouse (I.P.)
  Average weight of tumors: 1312 mg
  Inhibition: 76.8%
IMC Carcinoma [3]; 10 μg/mouse (P.O.)
  Average weight of tumors: 2638 mg
  Inhibition: 53.0%
IMC Carcinoma [4]; 1 μg/mouse i.p. once a day
  Average weight of tumors: 5740 mg
  Inhibition: 53.6%
IMC Carcinoma [4]; 10 μg/mouse i.p. once a day
  Average weight of tumors: 6190 mg
  Inhibition: 50.0%
IMC Carcinoma [4]; 100 μg/mouse i.p. once a day
  Average weight of tumors: 7970 mg
  Inhibition: 35.6%
[5]; 0.1 μg/mouse, I.P. injection
  Swelling degree: 119%
[5]; 0.1 μg/mouse, oral administration
  Swelling degree: 103%
[5]; 1 μg/mouse, I.P. injection
  Swelling degree: 129%
[5]; 1 μg/mouse, oral administration
  Swelling degree: 115%
[5]; 10 μg/mouse, I.P. injection
  Swelling degree: 131%
[5]; 10 μg/mouse, oral administration
  Swelling degree: 122%
[5]; 100 μg/mouse, I.P. injection
  Swelling degree: 133%
[5]; 100 μg/mouse, oral administration
  Swelling degree: 142%
[5]; 1 mg/mouse, I.P. injection
  Swelling degree: 125%
[5]; 1 mg/mouse, oral administration
  Swelling degree: 138%

## NC(C(=O)O)c1ccc(C=O)c(O)c1 (stereo not drawn) [Forphenicine]
Alkaline phosphatase
  inhibition of alkaline phosphatase: strong inhibitor
[6]
  delayed-type hypersensitivity: enhances delayed-type hypersensitivity
antibody-forming cells
  number of antibody-forming cells: increases the number of antibody-forming

## CO[C@@]12[C@H](COC(N)=O)C3=C(C(=O)C(C)=C(N)C3=O)N1C[C@@H]1N[C@@H]12 [MMC, Mytomycin, reference compound]
IMC Carcinoma [4]; [7]
  Average weight of tumors: 5510 mg
  Inhibition: 55.5%

## NC(C(=O)O)c1ccc(CO)c(O)c1 (stereo not drawn) [forphenicinol]
Immune response
  immunopotentiating activity: found to have an immunopotentiating activity

## Bleomycin [reference compound]
Gardner Lymphoma; [8]
  Average weight of tumors: 760 mg
  Inhibition: 42.0%
IMC Carcinoma [4]; 100 μg/mouse i.p. once a day
  Average weight of tumors: 5770 mg
  Inhibition: 53.4%
